One series has as its system MM-BRAF cells. The series is described as follows: Cell death / polyploidy in parental lung cancer cells. The class given is cell-based, mouse.
Series [1] deals with RPE-MYC cells. The series is described as follows: VX-680-induced cell death in RPE-MYC cells and derivatives. The class given is cell-based. An excerpt:
(§1) The p53 function in RPE-Myc cells can be interfered with by either a small molecule inhibitor of p53, PFT-a, (FIG. 1A), or a dominant negative p53 mutant (FIG. 1B). […] In contrast, either of these reagents conferred more than 70% protection against the cytotoxicity elicited by hydroxyurea (FIG. 1A-B), confirming that the p53 function was compromised. The conclusion was that p53 was not required for the apoptosis elicited by VX-680 in cells overexpressing MYC.
Survival signals are often mediated by the Ras-PI3K-Akt pathway. Overexpression of an active Hu-Ras^V12 elicited profound senescence in RPE-MYC cells, prevented generation of stable cell lines expressing Hu-Ras^V12, but were able to generate RPE-MYC cells expressing an active allele of MyrAkt. […] Thus, active signaling from Akt enhanced, rather than blocked, the apoptosis elicited by VX-680. The BCL family antiapoptotic factor Bcl2 is a critical regulator of mitochondrion-dependent apoptotic pathway by inhibiting cytochrome C release from mitochondria, whereas XIAP, the most characterized member of the IAP family, has been known to sequester and inactivate active caspases, proteases responsible for apoptosis. The overexpression of Bcl2 or Bcl-xL provided more than 40% protection against the cytotoxicity of VX-680 six days after administration of VX-680 (see, FIGS. 1C and 2) and that overexpression of XIAP has no effect on the MYC-dependent cytotoxicity (FIG. 1C).
Various RPEMYC derivatives used in this study were generated by stably transfecting human RPEMYC cells with a construct that expresses the gene of interest and selecting with 1 μg/ml of puromycin. Breast cancer cell line MD231MYC/Bcl2 was generated by engineering human MDA-MB-231 to stably express MYC and Bcl2. Lung cancer cell line MM-BRAF was created from mouse lung cancer model initiated by BRAF^V600E. All cell lines were cultured in DMEM supplemented with 10% fetal bovine serum and antibiotics at 5% CO2 and 95% air in a humidified incubator.
(§2) Cell death assays in response to drug treatment were performed 24 h after cells were seeded in 24-well plates. Each experiment was done in triplicate and each experiment was repeated at least twice unless indicated otherwise. Dead cells were identified by the trypan blue exclusion assay. All values are expressed as mean±1 SD of the mean.

In series [2] the test system is RPE-MYC cells. The series is described as follows: Hydroxyurea cytotoxicity in RPE-Myc cells (p53 function control). The class given is cell-based, human. As to conditions: p53 inhibition; FIG. 1A.
Excerpt: as §1, §2

As to `COc1cc(Nc2ncc3c(n2)-c2ccc(Cl)cc2C(c2c(F)cccc2OC)=NC3)ccc1C(=O)O` [MLN8237], the “effect on lung cancer cells” value in the series with MM-BRAF cells (FIG. 6A legend) was “cytostatic effect”. Moreover, the induction of polyploidy entry in the series with MM-BRAF cells (FIG. 6B legend) is recorded as “develop polyploidy”.
`Cc1ccc(C(=O)Cn2c3c(sc2=N)CCCC3)cc1` [PFT-a]: the “protection from VX-680-induced cell death” value in the series on RPE-MYC cells [1] (p53 inhibition, FIG. 1A) is given as “Neither of these reagents protected”. Also, the “protection against the cytotoxicity elicited by hydroxyurea” value with RPE-MYC cells [2] is given as “more than 70%”.
In the case of `Cc1cc(Nc2cc(N3CCN(C)CC3)nc(Sc3ccc(NC(=O)C4CC4)cc3)n2)[nH]n1` [VX-680], the “cell death on exposure” value with MM-BRAF cells (in vitro, FIG. 6A) is given as “failed to undergo cell death”. Moreover, the “induction of multinucleation and polyploidy” value in the series on MM-BRAF cells (treatment for 4 days, FIG. 6B) is “all cells became multinucleated and polyploid”. Also, the “effect of overexpression of XIAP on the MYC-dependent cytotoxicity” value with RPE-MYC cells [1] (FIG. 1C) is given as “no effect”. In addition, the “sensitivity to cytotoxicity, cells expressing Myc and active Akt versus Myc alone” value in the series with RPE-MYC cells [1] (RPE cells expressing both Myc and active Akt, FIG. 1C) was “moderately more sensitive”. In addition, the “protection against the cytotoxicity by overexpression of Bcl2 or Bcl-xL” value in the series with RPE-MYC cells [1] (six days after administration, FIGS. 1C and 2) is “more than 40%”.

The values are drawn from US11104633B2, “Cancer treatment using compounds that selectively target polyploid cancer cells for disruption” (Chengdu Anticancer Bioscience, Ltd., priority 2017, dated 2021).
